Marks after values point to notes of the source that are not given here.
Assays:
Assay type in all cases: in vivo, rat
[1] = tested on: blank cotton pellet granuloma; assay: Blank cotton pellet granuloma assay (intravenous administration); details: 3 days
Method: A further test was undertaken to determine the thymolytic activity of a representative species of the invention as compared to betamethasone 17-valerate. In this test, the drugs were administered intravenously to rats, while using a blank cotton pellet granuloma assay. Male Sprague-Dawley rats, each weighing about 185 grams (166-196 grams), were used. Two cotton pellets, each weighing 30 mg and containing no test compounds, were sterilized and implanted sub-cutaneously into the back of each test animal. This day was considered day 0 of implantation. Test compounds suspended in 0.8% polysorbate 80 were administered intravenously once daily for 3 consecutive days beginning with day 1. On day 5, the animals were sacrificed and the two pellets, with their respective granulomas, were removed, dried overnight in an oven at 50° C. and weighed (dry granuloma weight). The thymi and final body weights were also recorded.
In the foregoing tests, there was determined the deactivation of the representative species of the present soft steroids administered intravenously to rats. […] The test compounds were administered intravenously to rats to check the test compounds also for systemic anti-inflammatory activity as compared to betamethasone 17-valerate. The test compounds were found lower in the inhibition of granulation tissue formation and also in the thymus involution activity than betamethasone 17-valerate. From the results of the tests, it is presumed that the compounds which will not be readily subjected to metabolism (deactivation) have a systemic anti-inflammatory activity, as is the case with betamethasone 17-valerate.

[2] = tested on: thymus weight in rats; assay: Thymus inhibition testing (subcutaneous administration); details: for Body weight gain / Thymus / Thymus Inhibition / Thymus wt. / Thymus wt. Inhibition: three days
Method: Several further studies were undertaken to determine the effects of selected compounds of the invention on thymi weights in rats when the drugs were systemically administered. In each of these studies, male Sprague-Dawley rats were used. […] On the fifth day (48 hours following the last treatment), the animals were sacrificed and the thymi weights were recorded. […] It is evident that the higher the inhibition of thymus activity at a given dose, the more toxic the compound is.

[3] = tested on: granulation tissue formation caused by implantation of cotton pellets; assay: Granuloma formation test (local cotton pellet granuloma assay); details: for Relative potency (ED40) / Relative potency (ED60): chloromethyl 11β-hydroxy-17α-isopropoxycarbonyloxyandrost-4-en-3-one-17β-carboxylate = 1; for ED40: dose causing 40% inhibition of granulation tissue weight; for ED60: dose causing 60% inhibition of granulation tissue weight
Method: The test compound was dissolved in acetone and aliquots of varying concentrations were injected into cotton pellets. The pellets were dried and then one pellet was implanted beneath the skin of each test rat. Six days later, the animals were sacrificed and the granulation tissue (granuloma) which formed in and around the implanted pellet was removed, dried and weighed. In addition, the thymi and adrenals were removed and weighed.

[4] = Table X, betamethasone 17-valerate = 1
[5] = dose causing 50% inhibition of granulation tissue weight

For `CCOC(=O)O[C@]1(C(=O)OCCl)[C@H](C)C[C@H]2[C@@H]3CCC4=CC(=O)C=C[C@]4(C)[C@@]3(F)[C@@H](O)C[C@@]21C` [chloromethyl 17α-ethoxycarbonyloxy-9α-fluoro-11β-hydroxy-16α-methylandrosta-1,4-dien-3-one-17β-carboxylate], the Body wt. gain ([1]; 1 mg/kg/day i.v.) was 14.1 ± 1.4 g, the Dry granuloma wt. ([1]; 1 mg/kg/day i.v.) was 50.1 ± 6.9 mg and the “Dry granuloma wt. Inhibition” value ([1]; 1 mg/kg/day i.v.) was 20.1%. The Thymus wt. ([1]; 1 mg/kg/day i.v.) was 373 ± 25 mg, the “Thymus wt. Decrease” value ([1]; 1 mg/kg/day i.v.) was 11.6% and the Body wt. gain ([1]; 3 mg/kg/day i.v.) was 14.2 ± 1.3 g. For the same compound, the Dry granuloma wt. ([1]; 3 mg/kg/day i.v.) was 49.3 ± 5.1 mg, the “Dry granuloma wt. Inhibition” value ([1]; 3 mg/kg/day i.v.) was 21.4% and the Thymus wt. ([1]; 3 mg/kg/day i.v.) was 338 ± 20 mg. The “Thymus wt. Decrease” value ([1]; 3 mg/kg/day i.v.) was 19.9%, the Body wt. gain ([1]; 10 mg/kg/day i.v.) was 0.3 ± 1.7 g and the Dry granuloma wt. ([1]; 10 mg/kg/day i.v.) was 45.7 ± 4.6 mg. The “Dry granuloma wt. Inhibition” value ([1]; 10 mg/kg/day i.v.) was 27.1%, the Thymus wt. ([1]; 10 mg/kg/day i.v.) was 209 ± 31 mg and the “Thymus wt. Decrease” value ([1]; 10 mg/kg/day i.v.) was 50.5%. For the same compound, the Body wt. gain ([1]; 30 mg/kg/day i.v.) was -18.5 ± 2.3 g, the Dry granuloma wt. ([1]; 30 mg/kg/day i.v.) was 32.7 ± 3.0 mg and the “Dry granuloma wt. Inhibition” value ([1]; 30 mg/kg/day i.v.) was 47.8%. The Thymus wt. ([1]; 30 mg/kg/day i.v.) was 71 ± 4 mg, the “Thymus wt. Decrease” value ([1]; 30 mg/kg/day i.v.) was 83.2% and the Body weight gain ([2]; Table VII, 1 mg/kg/day s.c.) was 13.1 ± 1.0 g. The Thymus ([2]; Table VII, 1 mg/kg/day s.c.) was 428 ± 20 mg, the “Thymus Inhibition” value ([2]; Table VII, 1 mg/kg/day s.c.) was 9.1% and the Body weight gain ([2]; Table VII, 3 mg/kg/day s.c.) was 12.7 ± 1.4 g. The Thymus ([2]; Table VII, 3 mg/kg/day s.c.) was 412 ± 20 mg, the “Thymus Inhibition” value ([2]; Table VII, 3 mg/kg/day s.c.) was 12.5% and the Body weight gain ([2]; Table VII, 10 mg/kg/day s.c.) was 9.7 ± 1.3 g. The Thymus ([2]; Table VII, 10 mg/kg/day s.c.) was 405 ± 21 mg, the “Thymus Inhibition” value ([2]; Table VII, 10 mg/kg/day s.c.) was 14.0% and the Body weight gain ([2]; Table VII, 30 mg/kg/day s.c.) was 4.4 ± 0.7 g. For the same compound, the Thymus ([2]; Table VII, 30 mg/kg/day s.c.) was 292 ± 15 mg, the “Thymus Inhibition” value ([2]; Table VII, 30 mg/kg/day s.c.) was 38.0% and the Body weight gain ([2]; Table VIII, 10 mg/kg/day s.c.) was 14.2 ± 1.9 g. The Thymus wt. ([2]; Table VIII, 10 mg/kg/day s.c.) was 533 ± 31 mg, the “Thymus wt. Inhibition” value ([2]; Table VIII, 10 mg/kg/day s.c.) was 3.1% and the “Relative Potency (TED40)” value [2, 4] was 0.0058. The “Relative Potency (TED50)” value [2, 4] was less than 0.011, the TED40 ([2]; Table X, dose required to achieve 40% inhibition of thymi weight, subcutaneous) was 51.5 mg and the TED50 ([2]; Table X, dose required to achieve 50% inhibition of thymi weight, subcutaneous) was <51.5^a mg. The “Relative Potency (TED40)” value ([2]; Table XII, hydrocortisone 17-butyrate = 1) was 1/40, the TED40 ([2]; Table XII, thymus inhibition effect, subcutaneously) was 51.5 mg/kg and the Body wt. gain ([3]; Table IV, 0.3 μg/pellet) was 32.4 ± 1.1 g. The “Granulation tissue Dry wt.” value ([3]; Table IV, 0.3 μg/pellet) was 57.3 ± 5.0 mg, the “Granulation tissue Dry wt. Inhibition” value ([3]; Table IV, 0.3 μg/pellet) was 29.4% and the “Granulation tissue Wet wt.” value ([3]; Table IV, 0.3 μg/pellet) was 472 ± 23 mg. For the same compound, the “Granulation tissue Wet wt. Inhibition” value ([3]; Table IV, 0.3 μg/pellet) was 16.6%, the Thymus wt. ([3]; Table IV, 0.3 μg/pellet) was 492 ± 26 mg and the Body wt. gain ([3]; Table IV, 1 μg/pellet) was 37.3 ± 1.5 g. The “Granulation tissue Dry wt.” value ([3]; Table IV, 1 μg/pellet) was 36.4 ± 2.4 mg, the “Granulation tissue Dry wt. Inhibition” value ([3]; Table IV, 1 μg/pellet) was 55.2% and the “Granulation tissue Wet wt.” value ([3]; Table IV, 1 μg/pellet) was 388 ± 31 mg. For the same compound, the “Granulation tissue Wet wt. Inhibition” value ([3]; Table IV, 1 μg/pellet) was 31.4%, the Thymus wt. ([3]; Table IV, 1 μg/pellet) was 519 ± 22 mg and the Body wt. gain ([3]; Table IV, 3 μg/pellet) was 34.3 ± 1.1 g. For the same compound, the “Granulation tissue Dry wt.” value ([3]; Table IV, 3 μg/pellet) was 27.4 ± 2.9 mg, the “Granulation tissue Dry wt. Inhibition” value ([3]; Table IV, 3 μg/pellet) was 66.3% and the “Granulation tissue Wet wt.” value ([3]; Table IV, 3 μg/pellet) was 331 ± 11 mg. For the same compound, the “Granulation tissue Wet wt. Inhibition” value ([3]; Table IV, 3 μg/pellet) was 41.5%, the Thymus wt. ([3]; Table IV, 3 μg/pellet) was 472 ± 16 mg and the Body wt. gain ([3]; Table IV, 10 μg/pellet) was 36.1 ± 1.1 g. For the same compound, the “Granulation tissue Dry wt.” value ([3]; Table IV, 10 μg/pellet) was 22.1 ± 3.6 mg, the “Granulation tissue Dry wt. Inhibition” value ([3]; Table IV, 10 μg/pellet) was 72.8% and the “Granulation tissue Wet wt.” value ([3]; Table IV, 10 μg/pellet) was 313 ± 13 mg. The “Granulation tissue Wet wt. Inhibition” value ([3]; Table IV, 10 μg/pellet) was 44.7%, the Thymus wt. ([3]; Table IV, 10 μg/pellet) was 521 ± 35 mg and the Body wt. gain ([3]; Table IV, 30 μg/pellet) was 31.3 ± 1.4 g. The “Granulation tissue Dry wt.” value ([3]; Table IV, 30 μg/pellet) was 20.4 ± 2.4 mg, the “Granulation tissue Dry wt. Inhibition” value ([3]; Table IV, 30 μg/pellet) was 74.9% and the “Granulation tissue Wet wt.” value ([3]; Table IV, 30 μg/pellet) was 290 ± 10 mg. The “Granulation tissue Wet wt. Inhibition” value ([3]; Table IV, 30 μg/pellet) was 48.8%, the Thymus wt. ([3]; Table IV, 30 μg/pellet) was 505 ± 26 mg and the ED50 ([3]; Table XII, anti-inflammatory effect in cotton pellet granuloma) was 1.07 μg/pellet. For the same compound, the “Relative potency (ED40)” value [3] was 653, the “Relative potency (ED60)” value [3] was 283 and the ED40 [3] was 0.47 μg/pellet. The ED50 [3, 5] was 1.07 μg/pellet and the ED60 [3] was 2.44 μg/pellet.

`CCOC(=O)O[C@]1(C(=O)OCCl)[C@@H](C)C[C@H]2[C@@H]3CCC4=CC(=O)C=C[C@]4(C)[C@@]3(F)[C@@H](O)C[C@@]21C` [chloromethyl 17α-ethoxycarbonyloxy-9α-fluoro-11β-hydroxy-16β-methylandrosta-1,4-dien-3-one-17β-carboxylate] was tested, and the Body weight gain ([2]; Table VIII, 10 mg/kg/day s.c.) was 2.4 ± 1.8 g, the Thymus wt. ([2]; Table VIII, 10 mg/kg/day s.c.) was 266 ± 20 mg and the “Thymus wt. Inhibition” value ([2]; Table VIII, 10 mg/kg/day s.c.) was 51.6%. For the same compound, the Body wt. gain ([3]; Table V-a, 0.3 μg/pellet) was 32.5 ± 1.1 g, the “Granulation tissue Dry wt.” value ([3]; Table V-a, 0.3 μg/pellet) was 61.8 ± 5.7 mg and the “Granulation tissue Dry wt. Inhibition” value ([3]; Table V-a, 0.3 μg/pellet) was 22.8%. The “Granulation tissue Wet wt.” value ([3]; Table V-a, 0.3 μg/pellet) was 499 ± 36 mg, the “Granulation tissue Wet wt. Inhibition” value ([3]; Table V-a, 0.3 μg/pellet) was 5.0% and the Thymus wt. ([3]; Table V-a, 0.3 μg/pellet) was 501 ± 29 mg. The Body wt. gain ([3]; Table V-a, 1 μg/pellet) was 36.3 ± 0.9 g, the “Granulation tissue Dry wt.” value ([3]; Table V-a, 1 μg/pellet) was 57.0 ± 6.2 mg and the “Granulation tissue Dry wt. Inhibition” value ([3]; Table V-a, 1 μg/pellet) was 28.8%. The “Granulation tissue Wet wt.” value ([3]; Table V-a, 1 μg/pellet) was 437 ± 24 mg, the “Granulation tissue Wet wt. Inhibition” value ([3]; Table V-a, 1 μg/pellet) was 16.8% and the Thymus wt. ([3]; Table V-a, 1 μg/pellet) was 566 ± 31 mg. For the same compound, the Body wt. gain ([3]; Table V-a, 3 μg/pellet) was 33.8 ± 1.3 g, the “Granulation tissue Dry wt.” value ([3]; Table V-a, 3 μg/pellet) was 47.5 ± 5.0 mg and the “Granulation tissue Dry wt. Inhibition” value ([3]; Table V-a, 3 μg/pellet) was 40.7%. For the same compound, the “Granulation tissue Wet wt.” value ([3]; Table V-a, 3 μg/pellet) was 422 ± 32 mg, the “Granulation tissue Wet wt. Inhibition” value ([3]; Table V-a, 3 μg/pellet) was 19.6% and the Thymus wt. ([3]; Table V-a, 3 μg/pellet) was 500 ± 27 mg. The Body wt. gain ([3]; Table V-a, 10 μg/pellet) was 31.1 ± 1.7 g, the “Granulation tissue Dry wt.” value ([3]; Table V-a, 10 μg/pellet) was 34.8 ± 5.5 mg and the “Granulation tissue Dry wt. Inhibition” value ([3]; Table V-a, 10 μg/pellet) was 56.6%. For the same compound, the “Granulation tissue Wet wt.” value ([3]; Table V-a, 10 μg/pellet) was 370 ± 21 mg, the “Granulation tissue Wet wt. Inhibition” value ([3]; Table V-a, 10 μg/pellet) was 29.5% and the Thymus wt. ([3]; Table V-a, 10 μg/pellet) was 421 ± 30 mg. For the same compound, the “Relative potency (ED40)” value [3] was 133, the “Relative potency (ED60)” value [3] was 38 and the ED40 [3] was 2.31 μg/pellet. For the same compound, the ED50 [3, 5] was 6.45 μg/pellet and the ED60 [3] was 18.01 μg/pellet.
